Active and inactive are the calls of the source. Unless noted, the calls are words filed in the database; no cut-off is given here.

The test system of data set [1] is SH-SY5Y. The data set can be described thus: Antiproliferative activity against human SH-SY5Y cells at 1 uM after 24 to 72 hrs by WST1 assay. The class given is cell-based. In general terms: Tetrazolium assays rely on reduction of a dye to a coloured formazan, in cell work by metabolically active cells.
Data set [2] deals with Acetylcholinesterase (Homo sapiens) (UniProt P22303). The data set can be described thus: Inhibition of acetylcholinesterase (unknown origin) at 1 uM using acetylthiocholine chloride as substrate measured for 5 to 40 mins.
Chain of Acetylcholinesterase (Homo sapiens) (P22303 whole entry, the tested form may be a part): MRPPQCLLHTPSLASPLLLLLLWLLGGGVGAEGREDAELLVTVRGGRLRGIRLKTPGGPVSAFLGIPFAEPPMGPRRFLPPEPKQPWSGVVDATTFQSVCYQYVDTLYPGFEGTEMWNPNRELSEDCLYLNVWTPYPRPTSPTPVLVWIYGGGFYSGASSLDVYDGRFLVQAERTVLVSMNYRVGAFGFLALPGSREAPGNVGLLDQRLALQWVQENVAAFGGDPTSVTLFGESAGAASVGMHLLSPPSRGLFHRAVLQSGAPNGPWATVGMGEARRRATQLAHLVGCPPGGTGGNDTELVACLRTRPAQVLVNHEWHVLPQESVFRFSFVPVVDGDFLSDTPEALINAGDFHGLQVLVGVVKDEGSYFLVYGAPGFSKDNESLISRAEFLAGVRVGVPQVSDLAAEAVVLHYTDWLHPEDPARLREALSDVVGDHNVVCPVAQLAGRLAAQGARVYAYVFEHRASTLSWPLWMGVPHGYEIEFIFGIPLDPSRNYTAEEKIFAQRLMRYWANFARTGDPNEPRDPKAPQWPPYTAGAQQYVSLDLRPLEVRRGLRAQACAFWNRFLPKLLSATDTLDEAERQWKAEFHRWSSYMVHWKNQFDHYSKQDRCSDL
For data set [3], the system named is SH-SY5Y. Briefly: Neuroprotective activity against amyloid beta (1 to 42 residues) induced cell death in human SH-SY5Y cells expressing APPswe mutant at 1 uM after 48 hrs by WST1 assay. In kind it is functional, cell-based.
Data set [4] can be described thus: Metal chelating activity assessed as compound-Zn2+ complex formation by UV-vis spectrophotometric analysis.
Data set [5] can be described thus: Metal chelating activity assessed as compound-Fe3+ complex formation by UV-vis spectrophotometric analysis.
Data set [6] in a line: Metal chelating activity assessed as compound-Cu2+ complex formation by UV-vis spectrophotometric analysis.
Data set [7] has as its system SH-SY5Y. The data set can be described thus: Inhibition of Cu2+-mediated amyloid beta (1 to 42 residues) production in human SH-SY5Y cells expressing APPswe mutant at 1 uM after 72 hrs by ELISA based spectrophotometric analysis. The class given is cell-based. (In general: In an ELISA, binding on a coated surface is turned into a signal by an enzyme label.)
Data set [8] deals with SH-SY5Y. Briefly: Inhibition of Fe3+-mediated amyloid beta (1 to 42 residues) production in human SH-SY5Y cells expressing APPswe mutant at 1 uM after 72 hrs by ELISA based spectrophotometric analysis. The class given is cell-based.
The test system of data set [9] is SH-SY5Y. The data set can be described thus: Inhibition of Cu2+-mediated ROS generation in human SH-SY5Y cells expressing APPswe mutant at 1 uM after 72 hrs by DCF-DA dye-based fluorescence spectroscopic analysis. In kind it is cell-based.
Data set [10] has as its system SH-SY5Y. Briefly: Inhibition of Fe3+-mediated ROS generation in human SH-SY5Y cells expressing APPswe mutant at 1 uM after 72 hrs by DCF-DA dye-based fluorescence spectroscopic analysis. The class given is cell-based.
Data set [11] deals with SH-SY5Y. The data set can be described thus: Inhibition of Zn2+-mediated amyloid beta (1 to 42 residues) production in human SH-SY5Y cells expressing APPswe mutant at 1 uM after 72 hrs by ELISA based spectrophotometric analysis. In kind it is cell-based.

As to `C[C@H](CCC(=O)Nc1ccc(C(=O)NN=C(c2ccccn2)c2ccccn2)cc1)[C@H]1CC[C@H]2[C@@H]3[C@H](O)C[C@@H]4C[C@H](O)CC[C@]4(C)[C@H]3C[C@H](O)[C@]12C`, the Activity entry with SH-SY5Y [1] was “Non-Toxic”. In addition, the inhibition result (in data set [2]; with SH-SY5Y [7]; in the data set on SH-SY5Y [8]; in the data set with SH-SY5Y [9]; in the data set with SH-SY5Y [10]) was “inactive” throughout. For the same molecule, the outcome (in the data set with SH-SY5Y [3]; in data set [4]) was inactive. In addition, the result in data set [5] and in [6] was Active.

On to `CCN1/C(=C/c2c(N/N=C/c3cc(C(C)(C)C)ccc3O)c(=O)c2=O)Sc2ccccc21`, for which the Activity result with SH-SY5Y [1] is “Non-Toxic”. Besides, the inhibition entry (in data set [2]; in the data set on SH-SY5Y [7]; in the data set on SH-SY5Y [8]; with SH-SY5Y [9]; in the data set with SH-SY5Y [10]) was “inactive” throughout. The result (in the data set on SH-SY5Y [3]; in [4]) was inactive. For the same molecule, the outcome in [5] and in [6] was Active.

For the molecule `COc1ccc(Nc2c(N/N=C/c3ccc(C(C)(C)C)cc3O)c(=O)c2=O)cc1`, in the data set on SH-SY5Y [1], the Activity result is reported as “Non-Toxic”. Also, the inhibition entry (in data set [2]; in the data set with SH-SY5Y [7]; in the data set on SH-SY5Y [8]; in the data set on SH-SY5Y [9]; in the data set on SH-SY5Y [10]) was “inactive” in each case. The result (with SH-SY5Y [3]; in data set [4]) was inactive. Also, the outcome in data set [5] and in data set [6] was Active.

As for `Oc1c(I)cc(Cl)c2cccnc12`, the inhibition entry in the data set with SH-SY5Y [11], with SH-SY5Y [7] and with SH-SY5Y [8] was “Active” each time.

With `COc1ccc(Nc2c(N/N=C/c3ccc4ccccc4n3)c(=O)c2=O)cc1`, the Activity result with SH-SY5Y [1] was “Non-Toxic”. Further, the inhibition entry (in [2]; in the data set with SH-SY5Y [7]; in the data set with SH-SY5Y [8]; in the data set with SH-SY5Y [9]; in the data set with SH-SY5Y [10]) was “inactive” each time. Also, the outcome (in the data set with SH-SY5Y [3]; in data set [4]) was inactive. Further, the outcome in [5] and in data set [6] was Active.

Consider `COc1ccc(Nc2c(N/N=C/c3cccc(OC)c3O)c(=O)c2=O)cc1`, for which the Activity entry with SH-SY5Y [1] is given as “Non-Toxic”. For the same molecule, the inhibition entry (in [2]; with SH-SY5Y [7]; with SH-SY5Y [8]; with SH-SY5Y [9]; in the data set with SH-SY5Y [10]) was “inactive” each time. Further, the outcome (in the data set with SH-SY5Y [3]; in [4]) was inactive. In addition, the result in [5] and in data set [6] was Active.

With `CCN1/C(=C/c2c(N/N=C/c3cccc(OC)c3O)c(=O)c2=O)Sc2ccccc21`, in the data set on SH-SY5Y [1], the Activity entry is listed as “Non-Toxic”. The inhibition entry (in data set [2]; with SH-SY5Y [7]; in the data set with SH-SY5Y [8]; in the data set with SH-SY5Y [9]; in the data set on SH-SY5Y [10]) was “inactive” in each case. The result (in the data set with SH-SY5Y [3]; in data set [4]) was inactive. Moreover, the outcome in data set [5] and in data set [6] was Active.

The values above are taken from ChEMBL document CHEMBL4196074, “Metallomics for Alzheimer's disease treatment: Use of new generation of chelators combining metal-cation binding and transport properties” (Eur J Med Chem, 2018).
